# Measurements published in patent US20250049970A1, “DLL3 TARGETING PEPTIDES AND CONSTRUCTS THEREOF” (MARIANA ONCOLOGY INC., priority 2023, published 2025).
# *1 amine or outer side, *2 acyl side, *3 side chain or, on linkers, in order; H or OH if unused. Where a SMILES comes first, the peptide text is derived from it. Bridges are numbered along the chain shown (N, C = ends). [ ]: non-standard residue; d: D form. The star is where a group is joined. Ala(piperidin-4-yl) = O=C([C@H](CC1CCN([*:3])CC1)N[*:1])[*:2]; DOTA = O=C(O)CN1CCN(CC(=O)O)CCN(CC(=O)*)CCN(CC(=O)O)CC1; X1 = O=CCN1CCN(CC(=O)O)CCN(CC(=O)*)CCN(CC(=O)O)CC1; 2Nal = N[C@@H](Cc1ccc2ccccc2c1)C(=O)O; tBuAla = CC(C)(C)C[C@H](N)C(=O)O; Chg = N[C@H](C(=O)O)C1CCCCC1; Tle = CC(C)(C)[C@H](N)C(=O)O
# Legend:
# DLL3 = target: T1, DLL3 (Homo sapiens, UniProt Q9NYJ7); assay: SPR KD, biotinylated human DLL3 on streptavidin chip (Table 8); parameters: biotin (biotinylated); conditions: biotinylated human DLL3 on streptavidin sensor chip, 25° C., 1:1 binding model; read-out: SPR KD
# T1 sequence (Q9NYJ7 27-618): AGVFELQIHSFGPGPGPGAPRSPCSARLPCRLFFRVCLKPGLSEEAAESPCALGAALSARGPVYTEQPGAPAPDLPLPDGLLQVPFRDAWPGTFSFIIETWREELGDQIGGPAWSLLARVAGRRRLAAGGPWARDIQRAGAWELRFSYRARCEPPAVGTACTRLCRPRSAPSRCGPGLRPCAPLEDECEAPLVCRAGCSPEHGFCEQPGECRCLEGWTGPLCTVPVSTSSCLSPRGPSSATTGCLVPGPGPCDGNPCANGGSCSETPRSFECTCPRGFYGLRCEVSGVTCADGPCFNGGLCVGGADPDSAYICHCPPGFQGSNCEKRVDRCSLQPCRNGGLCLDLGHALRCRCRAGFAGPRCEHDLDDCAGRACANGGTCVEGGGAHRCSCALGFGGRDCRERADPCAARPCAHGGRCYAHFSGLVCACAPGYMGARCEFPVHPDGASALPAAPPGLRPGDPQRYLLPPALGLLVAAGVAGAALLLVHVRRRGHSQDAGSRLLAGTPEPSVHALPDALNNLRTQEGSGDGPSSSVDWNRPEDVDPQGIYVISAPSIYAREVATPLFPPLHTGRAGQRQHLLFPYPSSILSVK
# Description: Biotinylated target ligand human DLL3 was immobilized on a streptavidin sensor chip. A reference surface was set up for nonspecific binding and refractive index changes. […] Sensorgram curves were fitted with 1:1 binding model, and affinity and kinetic parameters were obtained using Biacore Insight evaluation 4.0. software.
# CT26.DLL3 cells [1] = assay: Internalization of [177Lu]Lu-labeled peptide, CT26.DLL3 cells; type: cell-based; conditions: 1 h, 37° C.
# Experimental: (§1) [^177Lu]LuCl3 was received from venders in HCl solution. For every mCi of [^177Lu]LuCl3 added to the reaction vial (1.5 mL Eppendorf vial), ammonium acetate buffer (0.2 M, pH 4.9, 100 μL, containing 1% w/v ascorbic acid and 6% v/v ethanol) and peptide conjugate (1 nmol; also referred to herein as “chelator-peptides”) was added. The pH of the solution was determined to be approximately 5 by using pH strips. The reaction vial was incubated at 80° C., 700 RPM for 17-20 minutes. A sample from the reaction was analyzed by RP-HPLC using an Agilent Infinity II 1260 HPLC to determine reaction completion and radiochemical purity of [^177Lu]Lu-chelator-peptides. HPLC conditions: Waters XBridge BEH C18 Column, 130A, 3.5 μm, 4.6 mm×250 mm; mobile phase: Solvent A=water (with 0.1% formic acid), solvent B=acetonitrile (with 0.1% formic acid). Gradients: 25-45% B in 10 minutes, 45-65% B in 12 minutes, 65-90% in 6 minutes at a flow rate of 0.5 mL/minutes Required amounts of the product was formulated in 1% PBSA for cell studies.
# (§2) The study was conducted using SHP-77, CT26.WT, CT26.DLL3, and HEK293.DLL3 cells (Table 9)
# (§3) Adherent cell studies: The cells were cultured in appropriate culture media (20 mL) in tissue culture treated T150 flasks at 37° C. and 5% C02. Adherent cells were detached (60-70% confluent) using 5 mL Versene at 37° C. for 3 minutes. After confirming the viability using countess and count of detached cells using Trypan blue, the cells were centrifuged at 4° C. for 5 minutes (1,000 rpm). The cell pellet obtained was washed once with PBS and resuspended in 1% PBSA to obtain the desired cell concentration (5-25 million cells/mL).
# (§4) Cell numbers used for the assay were in the range of 5 million cells/condition-25 million cells/condition.
# (§5) Internalization: The resuspended cells in 300 μL of 1% PBSA and counted in the gamma counter as “bound fraction” were collected in 1.5 mL Eppendorf tube and pelleted. The pelleted cells were incubated with 300 μL of 50 mM Glycine pH=2.5 for 3 minutes and then pelleted discarding the supernatant. This process was repeated one more time. The pelleted cells were washed with 300 μL of cold 1% PBSA and then resuspended in 300 μl 0.3M NaOH. This was counted in the gamma counter as “internalized fraction”.
# (§6) In these Tables, “A” represents % s ≤25; “B” represents 25 <% ≤50; “C” represents % >50.
# SHP-77 cells [2] = assay: Cell binding (total uptake) of [177Lu]Lu-labeled peptide, SHP-77 cells; type: cell-based; conditions: 1 h, 37° C.
# Experimental: as §1, §2, §3
# (§7) Suspension cell studies: The cells were cultured in appropriate culture media (20 mL) in tissue culture treated T150 flasks at 37° C. and 5% CO2. After confirming the viability and count of detached cells using Trypan blue, the cells were centrifuged at 4° C. for 5 minutes (1,000 rpm). The cell pellet obtained was washed once with PBS and resuspended in 1% PBSA to obtain the desired cell concentration (5-25 million cells/mL).
# as §4
# (§8) Total uptake: Cells were incubated with 300 μL (0.8 μCi) of the incubation buffer (containing radiolabeled peptide [^177Lu]Lu-test peptide) for 1 hour at 37° C. (Table 10). Post incubation, the cells were pelleted and washed 2 times using cold PBS+1% BSA. The supernatant and washes were combined and counted together as “unbound fraction” in a gamma counter. The cells were then resuspended in 300 μL of 1% PBS+1% BSA and counted in the gamma counter as “bound fraction”.
# as §6
# SHP-77 cells [3] = assay: Internalization of [177Lu]Lu-labeled peptide, SHP-77 cells; type: cell-based; conditions: 1 h, 37° C.
# Experimental: as §1, §2, §3, §7, §4, §5, §6
# [4] = tested on: nude mice bearing SHP-77 tumors; assay: Ex vivo biodistribution of radiolabeled peptides (% IA/g) in nude mice bearing SHP-77 tumors; conditions: [177Lu]Lu labelling, 24 hours post-injection, intravenous
# Experimental: Mice were intravenously injected (via the lateral tail vein) with a bolus dose of the radiolabeled peptides for ex vivo biodistribution studies when tumor volumes were in range of 200-400 mm^3 for xenograft mice and when age of the mice was 5-7 weeks for tumor naïve mice studies. To assess the amount of radionuclide injected into individual mice the syringe was assayed in a dose calibrator before and after injection for [^177Lu]Lu-peptide, then the injected dose was determined from the weight difference and concentration of the radionuclide solution.
# Mice were euthanized at pre-determined time points and selected tissues were resected and collected into pre-weighed tubes. The tubes were then reweighed post resection, the difference giving the weight of each tissue. Radioactivity in each tissue was measured using a gamma counter. Counts were decay corrected to the time of injection and percentage of injected activity per gram (% IA/g) was calculated for each tissue based on the injected activity into each individual mouse. Injected activity was converted to counts based on the sensitivity of the gamma counter. The counts in tissue were then converted to the percentage of injected activity and this was divided by the mass of tissue to give % IA/g.
# CT26.DLL3 cells [5] = assay: Cell binding (total uptake) of [177Lu]Lu-labeled peptide, CT26.DLL3 cells; type: cell-based; conditions: 1 h, 37° C.
# Experimental: as §1, §2, §3, §4, §8, §6
Structure (SMILES),Kd (DLL3) [nM],% Internalization (out of bound fraction) (CT26.DLL3 cells [1]),% Binding (SHP-77 cells [2]),% Internalization (out of bound fraction) (SHP-77 cells [3]),kidney uptake (% IA/g) [4],tumor uptake (% IA/g) [4],% Binding (CT26.DLL3 cells [5])
"CC[C@H](C)[C@H](NC(=O)[C@@H](NC(=O)[C@H](Cc1c[nH]c2ccccc12)NC(C)=O)[C@@H](C)O)C(=O)N[C@H]1CSSC[C@@H](C(=O)N[C@@H](Cc2c[nH]c3ccccc23)C(=O)N2CCC[C@H]2C(N)=O)NC(=O)[C@H](CC(=O)O)NC(=O)[C@H](Cc2cnc[nH]2)NC(=O)[C@H](Cc2ccc3ccccc3c2)NC(=O)[C@H](CC(N)=O)NC(=O)[C@H](CCCCNC(=O)CN2CCN(CC(=O)O)CCN(CC(=O)O)CCN(CC(=O)O)CC2)NC1=O [compound 249, Ac-W-T-I-C(3)-Lys(DOTA)-N-(2Nal)-H-D-C(3)-W-P-CONH2] (Ac-WTICK(DOTA)N[2Nal]HDCWP-NH2; disulfide 4-10)",< 1,B (25 <% ≤50),A (% s ≤25),B (25 <% ≤50),C (“C” represents 0 < % IA/g ≤ 10 in),A (“A” represents 0 < % IA/g ≤ 5 in tumor),A (% s ≤25)
"CC(=O)N[C@@H](Cc1c[nH]c2ccccc12)C(=O)N[C@H](C(=O)N[C@@H](CC(C)(C)C)C(=O)N[C@H]1CSSC[C@@H](C(=O)N[C@@H](Cc2c[nH]c3ccccc23)C(=O)N2CCC[C@H]2C(N)=O)NC(=O)[C@H](CC(=O)O)NC(=O)[C@H](CCCCNC(=O)CN2CCN(CC(=O)O)CCN(CC(=O)O)CCN(CC(=O)O)CC2)NC(=O)[C@H](Cc2ccc3ccccc3c2)NC(=O)[C@H](CC(N)=O)NC(=O)[C@H](CC2CCNCC2)NC1=O)[C@@H](C)O [compound 314, Ac-W-T-(t-Bu-Ala)-C(3)-[3-(4-piperidinyl)-Ala]-N-(2Nal)-Lys(DOTA)-D-C(3)-W-P-CONH2] (Ac-WT[tBuAla]C[Ala(piperidin-4-yl)]N[2Nal]K(DOTA)DCWP-NH2; disulfide 4-10)",< 1,B (25 <% ≤50),B (25 <% ≤50),B (25 <% ≤50),C (“C” represents 0 < % IA/g ≤ 10 in),A (“A” represents 0 < % IA/g ≤ 5 in tumor),B (25 <% ≤50)
"CC(=O)N[C@@H](Cc1c[nH]c2ccccc12)C(=O)N[C@H](C(=O)N[C@H](C(=O)N[C@H]1CSSC[C@@H](C(=O)N[C@@H](Cc2c[nH]c3ccccc23)C(=O)N2CCC[C@H]2C(N)=O)NC(=O)[C@H](CC(=O)O)NC(=O)[C@H](CCCCNC(=O)CN2CCN(CC(=O)O)CCN(CC(=O)O)CCN(CC(=O)O)CC2)NC(=O)[C@H](Cc2ccc3ccccc3c2)NC(=O)[C@H](CC(N)=O)NC(=O)[C@H](CC(N)=O)NC1=O)C(C)(C)C)[C@@H](C)O [compound 315, Ac-W-T-(Tbg)-C(3)-N-N-(2Nal)-Lys(DOTA)-D-C(3)-W-P-CONH2] (Ac-WT[Tle]CNN[2Nal]K(DOTA)DCWP-NH2; disulfide 4-10)",< 1,C (% >50),B (25 <% ≤50),B (25 <% ≤50),C (“C” represents 0 < % IA/g ≤ 10 in),A (“A” represents 0 < % IA/g ≤ 5 in tumor),A (% s ≤25)
"CC(=O)N[C@@H](Cc1c[nH]c2ccccc12)C(=O)N[C@H](C(=O)N[C@@H](CC(C)(C)C)C(=O)N[C@H]1CSSC[C@@H](C(=O)N[C@@H](Cc2c[nH]c3ccccc23)C(=O)N2CCC[C@H]2C(N)=O)NC(=O)[C@H](CC(=O)O)NC(=O)[C@H](CCCCNC(=O)CN2CCN(CC(=O)O)CCN(CC=O)CCN(CC(=O)O)CC2)NC(=O)[C@H](Cc2ccc3ccccc3c2)NC(=O)[C@H](CC(N)=O)NC(=O)[C@H](CC(N)=O)NC1=O)[C@@H](C)O [compound 316, Ac-W-T-(t-Bu-Ala)-C(3)-N-N-(2Nal)-Lys(DOTA)-D-C(3)-W-P-CONH2] (Ac-WT[tBuAla]CNN[2Nal]K(X1)DCWP-NH2; disulfide 4-10)",< 1,B (25 <% ≤50),B (25 <% ≤50),C (% >50),D (“D” represents % IA/g > 10 in kidney),A (“A” represents 0 < % IA/g ≤ 5 in tumor),A (% s ≤25)
"CC(=O)N[C@@H](Cc1c[nH]c2ccccc12)C(=O)N[C@H](C(=O)N[C@H](C(=O)N[C@H]1CSSC[C@@H](C(=O)N[C@@H](Cc2c[nH]c3ccccc23)C(=O)N2CCC[C@H]2C(N)=O)NC(=O)[C@H](CC(=O)O)NC(=O)[C@H](CCCCNC(=O)CN2CCN(CC(=O)O)CCN(CC(=O)O)CCN(CC(=O)O)CC2)NC(=O)[C@H](Cc2ccc3ccccc3c2)NC(=O)[C@H](CC(N)=O)NC(=O)[C@H](CC2CCNCC2)NC1=O)C1CCCCC1)[C@@H](C)O [compound 324, Ac-W-T-(Chg)-C(3)-[3-(4-piperidinyl)-Ala]-N-(2Nal)-Lys(DOTA)-D-C(3)-W-P-CONH2] (Ac-WT[Chg]C[Ala(piperidin-4-yl)]N[2Nal]K(DOTA)DCWP-NH2; disulfide 4-10)",< 1,C (% >50),B (25 <% ≤50),B (25 <% ≤50),–,–,A (% s ≤25)
